For two compounds, inhibition results are on record in ChEMBL document CHEMBL4800727 (2021).

Structures are written as SMILES.

What all share (conditions): Compound concentration 10.0 uM
The target of experiment [1] is T1, Muscarinic acetylcholine receptor M1 (Homo sapiens) (UniProt P11229).
T1 sequence (whole entry): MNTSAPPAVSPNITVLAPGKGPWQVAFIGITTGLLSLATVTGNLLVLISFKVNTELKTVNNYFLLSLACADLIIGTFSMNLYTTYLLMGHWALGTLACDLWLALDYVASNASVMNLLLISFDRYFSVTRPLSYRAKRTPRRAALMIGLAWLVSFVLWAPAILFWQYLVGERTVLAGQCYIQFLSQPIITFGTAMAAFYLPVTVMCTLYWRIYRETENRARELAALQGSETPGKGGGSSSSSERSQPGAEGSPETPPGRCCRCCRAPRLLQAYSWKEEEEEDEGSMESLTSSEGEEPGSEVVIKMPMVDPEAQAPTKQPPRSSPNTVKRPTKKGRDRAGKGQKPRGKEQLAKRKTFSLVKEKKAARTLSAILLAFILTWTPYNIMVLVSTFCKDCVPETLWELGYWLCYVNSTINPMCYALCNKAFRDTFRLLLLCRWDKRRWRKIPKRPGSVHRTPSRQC

Experiment [2] addresses 5-hydroxytryptamine receptor 1D (Homo sapiens) (UniProt P28221).
The target in experiment [3] is Alpha-2C adrenergic receptor (Homo sapiens) (UniProt P18825).
Experiment [4] addresses D(3) dopamine receptor (Homo sapiens) (UniProt P35462).
In experiment [5] the target is Delta-type opioid receptor (Homo sapiens) (UniProt P41143).
Experiment [6] addresses Sodium-dependent serotonin transporter (Homo sapiens) (UniProt P31645).
Experiment [7] addresses Sigma non-opioid intracellular receptor 1 (Homo sapiens) (UniProt Q99720).
Experiment [8] addresses Histamine H3 receptor (Homo sapiens) (UniProt Q9Y5N1).
In experiment [9] the target is T2, GABA-A receptor; anion channel (Rattus norvegicus) (UniProt O09028+P15431+P18506+P18508+P19969+P20236+P23574+P23576+P28471+P28473+P30191+P62813+P63079+P63138+Q91ZM7+Q9ES14).
Experiment [10] deals with T2, GABA-A receptor; anion channel (Rattus norvegicus). This is another data set of the same source.
Experiment [11] addresses 5-hydroxytryptamine receptor 5A (Homo sapiens) (UniProt P47898).
The target of experiment [12] is Sigma intracellular receptor 2 (Homo sapiens) (UniProt Q5BJF2).
Experiment [13] concerns the target Alpha-1A adrenergic receptor (Homo sapiens) (UniProt P35348).
The target in experiment [14] is Sodium-dependent dopamine transporter (Homo sapiens, UniProt Q01959).
The target of experiment [15] is Histamine H1 receptor (Homo sapiens) (UniProt P35367).
Experiment [16] concerns the target D(4) dopamine receptor (Homo sapiens) (UniProt P21917).
The target of experiment [17] is 5-hydroxytryptamine receptor 7 (Homo sapiens, UniProt P34969).
For experiment [18], the target named is 5-hydroxytryptamine receptor 2A (Homo sapiens) (UniProt P28223).
Experiment [19] addresses Sodium-dependent noradrenaline transporter (Homo sapiens) (UniProt P23975).
Experiment [20] addresses T3, Muscarinic acetylcholine receptor M2 (Homo sapiens) (UniProt P08172).
T3 sequence (whole entry): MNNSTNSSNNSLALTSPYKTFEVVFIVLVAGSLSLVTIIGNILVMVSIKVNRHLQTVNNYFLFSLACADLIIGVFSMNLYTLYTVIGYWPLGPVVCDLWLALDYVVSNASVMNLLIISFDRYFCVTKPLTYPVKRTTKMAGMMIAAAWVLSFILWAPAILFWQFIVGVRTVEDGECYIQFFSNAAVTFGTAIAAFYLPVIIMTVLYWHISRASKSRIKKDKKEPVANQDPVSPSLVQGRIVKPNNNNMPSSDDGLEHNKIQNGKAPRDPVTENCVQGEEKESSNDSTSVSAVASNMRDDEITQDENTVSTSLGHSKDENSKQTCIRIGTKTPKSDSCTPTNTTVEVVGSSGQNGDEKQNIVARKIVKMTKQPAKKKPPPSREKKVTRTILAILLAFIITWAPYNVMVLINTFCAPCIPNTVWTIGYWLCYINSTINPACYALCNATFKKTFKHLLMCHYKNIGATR

The target of experiment [21] is Alpha-1D adrenergic receptor (Homo sapiens) (UniProt P25100).
The target in experiment [22] is T4, 5-hydroxytryptamine receptor 2C (Homo sapiens) (UniProt P28335).
T4 sequence (whole entry): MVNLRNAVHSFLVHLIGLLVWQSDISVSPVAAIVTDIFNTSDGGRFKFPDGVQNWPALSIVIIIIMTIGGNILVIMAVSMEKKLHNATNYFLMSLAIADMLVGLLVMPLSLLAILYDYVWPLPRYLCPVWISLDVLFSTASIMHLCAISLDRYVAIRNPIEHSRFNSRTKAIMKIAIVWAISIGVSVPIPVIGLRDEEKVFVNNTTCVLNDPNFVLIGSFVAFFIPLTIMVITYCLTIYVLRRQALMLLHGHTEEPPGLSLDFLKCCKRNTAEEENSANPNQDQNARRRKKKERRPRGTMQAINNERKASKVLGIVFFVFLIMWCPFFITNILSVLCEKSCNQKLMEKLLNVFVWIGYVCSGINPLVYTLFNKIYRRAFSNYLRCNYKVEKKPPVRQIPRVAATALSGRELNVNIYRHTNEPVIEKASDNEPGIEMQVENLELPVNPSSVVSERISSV

Sequence of Sodium-dependent noradrenaline transporter (Homo sapiens) (P23975 whole entry): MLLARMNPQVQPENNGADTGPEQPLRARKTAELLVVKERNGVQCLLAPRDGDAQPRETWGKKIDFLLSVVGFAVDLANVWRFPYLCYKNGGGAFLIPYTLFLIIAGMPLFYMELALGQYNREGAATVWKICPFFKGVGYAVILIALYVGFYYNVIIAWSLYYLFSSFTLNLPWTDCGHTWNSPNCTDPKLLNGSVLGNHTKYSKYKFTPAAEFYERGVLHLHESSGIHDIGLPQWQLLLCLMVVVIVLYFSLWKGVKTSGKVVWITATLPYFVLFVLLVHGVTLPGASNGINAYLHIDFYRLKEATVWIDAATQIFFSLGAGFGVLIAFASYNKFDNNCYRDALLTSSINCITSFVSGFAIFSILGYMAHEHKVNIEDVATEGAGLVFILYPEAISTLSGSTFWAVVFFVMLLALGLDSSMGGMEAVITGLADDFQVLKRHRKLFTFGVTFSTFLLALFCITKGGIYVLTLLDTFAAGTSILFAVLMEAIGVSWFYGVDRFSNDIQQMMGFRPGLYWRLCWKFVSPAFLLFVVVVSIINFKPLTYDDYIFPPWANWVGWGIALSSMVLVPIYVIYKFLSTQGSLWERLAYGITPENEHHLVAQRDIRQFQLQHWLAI
Sequence of D(3) dopamine receptor (Homo sapiens) (P35462 whole entry): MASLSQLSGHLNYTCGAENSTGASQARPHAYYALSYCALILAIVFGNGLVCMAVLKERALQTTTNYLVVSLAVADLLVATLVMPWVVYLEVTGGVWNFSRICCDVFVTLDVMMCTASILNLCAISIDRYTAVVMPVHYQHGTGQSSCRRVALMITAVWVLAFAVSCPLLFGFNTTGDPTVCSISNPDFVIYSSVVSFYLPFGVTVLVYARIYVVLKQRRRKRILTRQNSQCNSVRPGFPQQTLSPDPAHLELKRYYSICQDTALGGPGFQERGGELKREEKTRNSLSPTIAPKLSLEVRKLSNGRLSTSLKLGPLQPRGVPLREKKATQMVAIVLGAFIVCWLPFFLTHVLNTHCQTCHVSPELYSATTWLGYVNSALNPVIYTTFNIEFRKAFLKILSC
Sequence of Histamine H3 receptor (Homo sapiens) (Q9Y5N1 whole entry): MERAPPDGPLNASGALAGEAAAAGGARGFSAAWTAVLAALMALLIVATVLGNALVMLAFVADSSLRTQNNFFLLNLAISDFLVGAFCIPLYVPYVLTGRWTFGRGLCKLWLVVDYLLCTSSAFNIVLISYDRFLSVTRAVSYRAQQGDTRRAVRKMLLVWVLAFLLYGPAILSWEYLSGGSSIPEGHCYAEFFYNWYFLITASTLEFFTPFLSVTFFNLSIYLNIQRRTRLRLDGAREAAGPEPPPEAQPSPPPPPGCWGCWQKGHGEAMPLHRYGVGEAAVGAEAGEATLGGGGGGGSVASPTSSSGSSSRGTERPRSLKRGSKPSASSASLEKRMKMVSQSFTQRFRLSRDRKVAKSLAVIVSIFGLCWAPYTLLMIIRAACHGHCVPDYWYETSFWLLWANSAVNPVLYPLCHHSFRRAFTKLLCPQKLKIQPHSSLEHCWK
Sequence of Sodium-dependent serotonin transporter (Homo sapiens) (P31645 whole entry, looked up): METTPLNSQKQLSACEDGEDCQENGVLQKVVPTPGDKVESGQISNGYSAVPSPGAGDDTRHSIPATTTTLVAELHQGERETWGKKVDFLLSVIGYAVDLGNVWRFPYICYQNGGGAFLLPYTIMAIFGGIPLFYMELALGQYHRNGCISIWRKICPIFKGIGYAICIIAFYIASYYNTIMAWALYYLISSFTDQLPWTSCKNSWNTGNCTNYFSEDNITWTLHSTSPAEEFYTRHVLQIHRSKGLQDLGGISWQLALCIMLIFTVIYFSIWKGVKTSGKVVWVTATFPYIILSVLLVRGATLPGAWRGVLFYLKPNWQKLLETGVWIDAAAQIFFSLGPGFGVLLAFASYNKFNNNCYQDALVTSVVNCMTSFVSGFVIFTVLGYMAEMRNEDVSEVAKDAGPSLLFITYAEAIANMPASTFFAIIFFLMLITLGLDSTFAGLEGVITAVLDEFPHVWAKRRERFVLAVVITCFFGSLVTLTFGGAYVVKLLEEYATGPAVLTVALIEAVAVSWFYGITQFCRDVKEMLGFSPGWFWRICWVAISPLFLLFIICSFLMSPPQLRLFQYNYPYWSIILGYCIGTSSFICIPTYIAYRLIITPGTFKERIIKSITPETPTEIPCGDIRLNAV
Sequence of Alpha-1A adrenergic receptor (Homo sapiens) (P35348 whole entry): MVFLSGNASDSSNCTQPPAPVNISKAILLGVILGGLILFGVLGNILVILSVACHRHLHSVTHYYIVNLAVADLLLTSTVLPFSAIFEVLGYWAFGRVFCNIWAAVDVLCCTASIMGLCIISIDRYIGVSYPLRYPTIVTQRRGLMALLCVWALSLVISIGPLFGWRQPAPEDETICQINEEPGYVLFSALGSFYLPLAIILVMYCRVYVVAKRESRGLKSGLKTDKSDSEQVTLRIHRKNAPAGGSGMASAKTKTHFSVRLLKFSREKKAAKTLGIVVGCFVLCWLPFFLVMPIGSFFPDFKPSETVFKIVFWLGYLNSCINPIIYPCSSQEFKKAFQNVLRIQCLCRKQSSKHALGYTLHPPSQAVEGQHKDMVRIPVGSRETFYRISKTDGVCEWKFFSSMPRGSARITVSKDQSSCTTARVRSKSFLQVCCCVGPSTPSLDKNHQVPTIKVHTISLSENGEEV
Sequence of Delta-type opioid receptor (Homo sapiens) (P41143 whole entry): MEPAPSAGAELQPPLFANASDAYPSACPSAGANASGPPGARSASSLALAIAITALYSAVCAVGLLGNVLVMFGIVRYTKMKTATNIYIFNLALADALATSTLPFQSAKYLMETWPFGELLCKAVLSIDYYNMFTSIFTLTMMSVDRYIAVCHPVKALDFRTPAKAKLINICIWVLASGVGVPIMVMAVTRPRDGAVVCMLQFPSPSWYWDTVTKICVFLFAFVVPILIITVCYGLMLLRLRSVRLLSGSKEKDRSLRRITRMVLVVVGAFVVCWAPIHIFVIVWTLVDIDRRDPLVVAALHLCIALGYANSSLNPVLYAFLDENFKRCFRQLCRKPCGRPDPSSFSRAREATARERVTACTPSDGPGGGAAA
Sequence of 5-hydroxytryptamine receptor 1D (Homo sapiens) (P28221 whole entry): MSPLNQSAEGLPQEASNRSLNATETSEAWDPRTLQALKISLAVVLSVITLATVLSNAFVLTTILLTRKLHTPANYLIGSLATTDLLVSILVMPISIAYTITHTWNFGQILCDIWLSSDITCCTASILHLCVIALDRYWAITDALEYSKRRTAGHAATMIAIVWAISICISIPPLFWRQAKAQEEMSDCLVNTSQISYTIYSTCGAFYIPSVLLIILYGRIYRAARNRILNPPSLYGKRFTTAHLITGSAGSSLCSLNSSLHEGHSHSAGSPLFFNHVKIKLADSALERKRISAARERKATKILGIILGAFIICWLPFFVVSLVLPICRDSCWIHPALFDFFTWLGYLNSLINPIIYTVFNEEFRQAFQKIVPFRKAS
Sequence of Alpha-2C adrenergic receptor (Homo sapiens) (P18825 whole entry): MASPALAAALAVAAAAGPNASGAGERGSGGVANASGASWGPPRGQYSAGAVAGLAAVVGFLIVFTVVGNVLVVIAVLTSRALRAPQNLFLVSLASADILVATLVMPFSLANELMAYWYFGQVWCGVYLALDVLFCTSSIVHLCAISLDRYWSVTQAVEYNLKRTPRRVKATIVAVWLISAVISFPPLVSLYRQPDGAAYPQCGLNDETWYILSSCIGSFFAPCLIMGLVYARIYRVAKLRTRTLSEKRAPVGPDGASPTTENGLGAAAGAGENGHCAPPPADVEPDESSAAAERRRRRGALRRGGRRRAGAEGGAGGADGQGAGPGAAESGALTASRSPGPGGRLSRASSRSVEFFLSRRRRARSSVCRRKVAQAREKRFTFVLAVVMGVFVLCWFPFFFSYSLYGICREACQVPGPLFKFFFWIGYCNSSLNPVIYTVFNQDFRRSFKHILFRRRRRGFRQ
Sequence of 5-hydroxytryptamine receptor 7 (P34969 whole entry): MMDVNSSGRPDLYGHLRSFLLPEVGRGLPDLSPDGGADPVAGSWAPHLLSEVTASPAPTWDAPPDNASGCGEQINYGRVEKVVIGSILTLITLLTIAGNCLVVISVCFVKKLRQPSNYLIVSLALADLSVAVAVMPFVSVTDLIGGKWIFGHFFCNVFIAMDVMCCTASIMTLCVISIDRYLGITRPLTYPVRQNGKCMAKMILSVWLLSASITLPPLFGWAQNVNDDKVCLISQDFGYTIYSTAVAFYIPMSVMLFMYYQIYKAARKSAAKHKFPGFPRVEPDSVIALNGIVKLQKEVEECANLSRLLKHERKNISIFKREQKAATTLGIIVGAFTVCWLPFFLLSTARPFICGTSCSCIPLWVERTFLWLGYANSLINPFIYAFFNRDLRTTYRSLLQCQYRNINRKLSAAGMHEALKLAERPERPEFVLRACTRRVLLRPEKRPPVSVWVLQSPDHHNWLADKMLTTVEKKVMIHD
Sequence of Sigma intracellular receptor 2 (Homo sapiens) (Q5BJF2 whole entry): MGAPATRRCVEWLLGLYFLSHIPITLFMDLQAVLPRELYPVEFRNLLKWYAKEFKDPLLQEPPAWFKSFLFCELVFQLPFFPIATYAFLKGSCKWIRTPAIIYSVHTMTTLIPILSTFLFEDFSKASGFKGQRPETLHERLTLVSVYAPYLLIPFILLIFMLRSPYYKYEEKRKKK
Sequence of 5-hydroxytryptamine receptor 5A (Homo sapiens) (P47898 whole entry): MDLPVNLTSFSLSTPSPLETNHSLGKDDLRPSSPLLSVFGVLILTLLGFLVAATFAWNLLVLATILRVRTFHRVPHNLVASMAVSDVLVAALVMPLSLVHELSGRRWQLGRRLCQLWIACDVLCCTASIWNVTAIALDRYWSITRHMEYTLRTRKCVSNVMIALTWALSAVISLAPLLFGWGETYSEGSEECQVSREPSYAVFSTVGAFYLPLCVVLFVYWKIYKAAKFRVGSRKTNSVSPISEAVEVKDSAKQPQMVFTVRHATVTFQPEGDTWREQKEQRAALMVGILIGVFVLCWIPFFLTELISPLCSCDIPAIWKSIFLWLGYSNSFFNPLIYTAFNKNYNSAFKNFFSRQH

With `c1ccc(C2CCN(c3cnc4c(N5CCOCC5)nccn34)CC2)cc1`, the inhibition (usually the drop in the measured response relative to a control, in per cent) was 23.7% in experiment [1]; 1.09% in experiment [2]; 16.5% in [3]; -6.13% in experiment [4]; 2.73% in [5]; 3.12% in [6]. In addition, the inhibition in [7] was 44%; in experiment [8] it was 7.29%; in experiment [9], 22.2%; in experiment [10], 59.8%; in [11], 19%; in [12], 31.6%. The inhibition in experiment [13] is 22.5%; in experiment [14] it was 85.9%; in experiment [15], 11.2%; in experiment [16] it was 0.44%; in experiment [17], 20.2%; in experiment [18], 13.1%. In addition, the inhibition is 17.4% in [19], 9.44% in experiment [20], 10.7% in experiment [21] and 5.92% in experiment [22].
Take `COCCc1ccc(-c2c(C)nc3c(N4CCOCC4)ccnn23)cn1` [JNJ-42396302]: the inhibition in experiment [1] is 2.83%; in [2] it was 11.5%; in experiment [3] it was 41.3%; in [4], 24.1%; in experiment [5], 7.84%; in experiment [6], 0.57%. Also, the inhibition is -2.53% in experiment [7]; 3.7% in experiment [8]; 34% in [9]; 0.32% in experiment [10]; 3.93% in [11]; 3.07% in experiment [12]. Further, the inhibition in experiment [13] is 23%; in [14], 9.55%; in experiment [15] it was 24.6%; in experiment [16], -3.39%; in experiment [17], 96.1%; in [18], 45.9%. The inhibition in [19] was 16%; in experiment [20], 10.4%; in [21], 15.3%; in [22], 68.2%.
